Reference: patent US20120071459A1, “BIS-PYRIDYLPYRIDONES AS MELANIN-CONCENTRATING HORMONE RECEPTOR 1 ANTAGONISTS” (GlaxoSmithKline LLC, priority 2009, published 2012)

What follows are compounds tested against T1, hMCHR1 (Homo sapiens, UniProt Q99705) (assay: MCHR1 pIC50 Determination FLIPR Assay). Details: HEK293 cells stably transfected with hMCHR1; MCH challenge at 4xEC50; in at least one experimental run.
T1 construct: expressed in transfected cells; host or cells: HEK293
Type: cell-based
Description: MCHR1 pIC50 Determination FLIPR™ Assay: HEK293 cells stably transfected with hMCHR1 were propagated as adherent cultures at 37° C. in a humidified incubator. Cells were split 1:8 at 90% confluency two times per week. New cell stocks were recovered from storage every two months. Cells were plated in black 384-well plates (Greiner) 24 hours prior to assay at 15,000 cells/well in 50 μL DMEM/F12, 10% FBS, 2 mM l-glutamine. Compounds to be profiled were prepared by making a stock solution at 3×10^−3M in 100% DMSO. The stock solutions were serially diluted 1:4 in 100% DMSO using JANUS (PerkinElmer) liquid handling instrument to allow for an 11 point curve in singlicate. At the time of the assay, the media was removed from the cell plate by aspiration, followed by the addition of 20 μL of loading buffer (Calcium 4 Kit, […]). Following 50 min incubation at 37° C., 10 μL of compound was added to the plates via the FLIPR™ instrument ([…]). The plates were incubated at room temperature for 15 minutes along with an MCH peptide agonist challenge plate. On the FLIPR™, a basal response was collected over 10 seconds followed by the addition of 10 μL of MCH challenge concentration at 4×EC50. Data was collected over 4 minutes and subjected to a nonlinear regression analysis curve fitting program to generate pIC50s.

T1 sequence (Q99705 whole entry): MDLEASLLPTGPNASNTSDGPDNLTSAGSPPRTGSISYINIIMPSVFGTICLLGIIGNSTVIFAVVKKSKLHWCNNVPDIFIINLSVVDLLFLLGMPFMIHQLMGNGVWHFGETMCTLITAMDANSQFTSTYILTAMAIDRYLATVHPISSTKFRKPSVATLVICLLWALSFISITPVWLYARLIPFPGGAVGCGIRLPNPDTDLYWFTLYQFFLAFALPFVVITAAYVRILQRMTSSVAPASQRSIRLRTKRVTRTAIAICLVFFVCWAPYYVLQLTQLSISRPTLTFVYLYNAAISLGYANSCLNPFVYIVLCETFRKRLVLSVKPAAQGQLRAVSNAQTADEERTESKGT

IC50 [nM] | SMILES
50 | O=C1CC2(CCCN(c3ccc(-n4ccc(OCc5ccc(Cl)cn5)cc4=O)cn3)C2)C(=O)N1 (stereo not drawn) [Example 11]
49 | O=C1N(c2ccc(-n3ccc(OCc4ccc(Cl)cn4)cc3=O)cn2)CC12CCNCC2 [Example 4, 4-{[(5-chloro-2-pyridinyl)methyl]oxy}-6′-(1-oxo-2,7-diazaspiro[3.5]nonan-2-yl)-2H-1,3′-bipyridin-2-one]
54 | O=c1cc(OCc2ccc(Cl)cn2)ccn1-c1ccc(N2CCC3(CC2)CNC3)nc1 [Example 12]
